ChEMBL document CHEMBL1201862, “PubChem BioAssay data set” (2004)
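96-well plates; 48 h exposure; 5 concentrations. Endpoints by linear interpolation between flanking doses. Not reached: highest tested concentration assigned. GI50: concentration for 50% inhibition of growth.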 Calls of active or inactive are those of the source. Cut-off read from the data, not from the text of the source: active = GI50 up to about 1.1 µM and inactive = higher.

Assays:
Experiment in all cases: growth of human tumour cells (NCI), 48 h
MDA-MB-435 = tested on: MDA-MB-435
NCI-H522 = tested on: NCI-H522
PC-3 = tested on: PC-3
IGROV-1 = tested on: IGROV-1
786-0 = tested on: 786-0
SW-620 = tested on: SW-620
RXF 393 = tested on: RXF 393
T47D = tested on: T47D
NCI-H460 = tested on: NCI-H460
SF-295 = tested on: SF-295
UO-31 = tested on: UO-31
MCF7 = tested on: MCF7
HCT-15 = tested on: HCT-15
KM12 = tested on: KM12
OVCAR-3 = tested on: OVCAR-3
Hs-578T = tested on: Hs-578T
UACC-257 = tested on: UACC-257
DU-145 = tested on: DU-145
K562 = tested on: K562

Measured: GI50

CN(C)c1ncnc2c1ncn2CCn1cnc2c(N(C)C)ncnc21
> 100 µM: HCT-15
inactive: MDA-MB-435 > 100 µM | NCI-H522 > 100 µM | PC-3 > 100 µM | IGROV-1 > 100 µM | 786-0 > 100 µM | SW-620 > 100 µM | RXF 393 > 100 µM | T47D > 100 µM | NCI-H460 > 100 µM | SF-295 > 100 µM | UO-31 > 100 µM | MCF7 > 100 µM | KM12 > 100 µM | OVCAR-3 > 100 µM | Hs-578T > 100 µM | UACC-257 > 100 µM | DU-145 > 100 µM

CC(C)(C)CNCCO
> 100 µM: HCT-15
inactive: MDA-MB-435 > 100 µM | NCI-H522 > 100 µM | PC-3 > 100 µM | IGROV-1 > 100 µM | 786-0 > 100 µM | SW-620 > 100 µM | RXF 393 > 100 µM | T47D > 100 µM | NCI-H460 > 100 µM | SF-295 > 100 µM | UO-31 > 100 µM | MCF7 > 100 µM | KM12 > 100 µM | OVCAR-3 > 100 µM | Hs-578T > 100 µM | UACC-257 > 100 µM | DU-145 > 100 µM

COc1ccccc1C1c2cc3c(cc2OC2(OC)COC(=O)C12)OCO3 (stereo not given)
5.33 µM: HCT-15
inactive: MDA-MB-435 2.27 µM | PC-3 12 µM | IGROV-1 13.1 µM | 786-0 19.1 µM | SW-620 6.7 µM | RXF 393 12.3 µM | K562 5.22 µM | T47D 34.5 µM | NCI-H460 15.3 µM | SF-295 13.2 µM | UO-31 14.6 µM | MCF7 10.3 µM | KM12 4.92 µM | OVCAR-3 9.57 µM | Hs-578T 5.83 µM | UACC-257 19.7 µM | DU-145 20.4 µM

COc1ccc(CNc2nc3cc(C(F)(F)F)ccc3nc2-c2ccccc2)cc1OC
inactive: MDA-MB-435 25.5 µM | NCI-H522 36.1 µM | PC-3 28.2 µM | IGROV-1 66.7 µM | 786-0 33.4 µM | SW-620 18.5 µM | RXF 393 22.8 µM | K562 26.1 µM | T47D 24.3 µM | NCI-H460 19.5 µM | SF-295 29.4 µM | UO-31 23.7 µM | MCF7 16.1 µM | KM12 29.5 µM | OVCAR-3 96.8 µM | Hs-578T 25.2 µM | UACC-257 28.4 µM | DU-145 87.5 µM
28.2 µM: HCT-15

CC1=C(\C=C/C(C)=C/C=C/C(C)=C/C=C/C=C(C)\C=C\C=C(C)/C=C/C2=C(C)CCCC2(C)C)C(C)(C)CCC1
inactive: MDA-MB-435 68.9 µM | NCI-H522 35.4 µM | PC-3 > 100 µM | IGROV-1 > 100 µM | 786-0 > 100 µM | SW-620 > 100 µM | RXF 393 33 µM | K562 > 100 µM | T47D 19.5 µM | NCI-H460 > 100 µM | SF-295 > 100 µM | UO-31 > 100 µM | MCF7 75.2 µM | KM12 39.6 µM | OVCAR-3 > 100 µM | Hs-578T 88.9 µM | UACC-257 > 100 µM | DU-145 > 100 µM
> 100 µM: HCT-15

CN1CCCC(OC(=O)c2cc3cc(CCl)ccc3oc2=O)C1 (stereo not given)
inactive: MDA-MB-435 18.9 µM | NCI-H522 15.9 µM | PC-3 18.3 µM | IGROV-1 28.6 µM | 786-0 23.8 µM | SW-620 22.7 µM | RXF 393 23.7 µM | K562 27.9 µM | T47D 32.7 µM | NCI-H460 19.1 µM | SF-295 25.2 µM | UO-31 15.8 µM | MCF7 20.4 µM | KM12 24 µM | OVCAR-3 14.2 µM | Hs-578T 21.9 µM | UACC-257 18.1 µM | DU-145 29.9 µM
19.2 µM: HCT-15

CC[C@@]1(O)C(=O)OCc2c1cc1n(c2=O)Cc2c-1nc1ccccc1c2/C=N\NC(=O)C(N)CS (stereo not given in full)
3.83 µM: HCT-15
inactive: MDA-MB-435 5.36 µM | PC-3 3.52 µM | IGROV-1 6.7 µM | SW-620 1.37 µM | RXF 393 1.8 µM | K562 1.5 µM | KM12 24.8 µM | OVCAR-3 13.2 µM | Hs-578T > 100 µM | UACC-257 7.26 µM
active: NCI-H522 0.883 µM | 786-0 0.51 µM | T47D 0.1 µM | NCI-H460 0.363 µM | SF-295 0.501 µM | UO-31 0.989 µM | MCF7 0.206 µM | DU-145 0.435 µM

COC(=O)CSC1CC(=O)c2c(Cl)sc(Cl)c21 (stereo not given)
inactive: MDA-MB-435 > 100 µM | NCI-H522 > 100 µM | PC-3 > 100 µM | IGROV-1 > 100 µM | 786-0 > 100 µM | SW-620 > 100 µM | RXF 393 > 100 µM | K562 > 100 µM | T47D > 100 µM | NCI-H460 > 100 µM | SF-295 > 100 µM | UO-31 > 100 µM | MCF7 > 100 µM | KM12 > 100 µM | Hs-578T > 100 µM | UACC-257 > 100 µM | DU-145 > 100 µM
> 100 µM: HCT-15

Brc1ccc2c3c1[C@@H]1O[C@@H]1c1cccc(c1-3)[C@@H]1O[C@H]21
18.6 µM: HCT-15
inactive: MDA-MB-435 15 µM | NCI-H522 13.8 µM | PC-3 23.6 µM | 786-0 16.5 µM | SW-620 14.5 µM | RXF 393 17.1 µM | K562 > 39.9 µM | T47D 15.4 µM | SF-295 19.2 µM | UO-31 15.4 µM | MCF7 9.08 µM | KM12 16.9 µM | OVCAR-3 19.9 µM | Hs-578T 29.9 µM | UACC-257 28.4 µM | DU-145 24.9 µM

c1ccc(C2=Nn3c(CCCCCCCCc4nnc5n4N=C(c4ccccc4)CS5)nnc3SC2)cc1
> 100 µM: HCT-15
inactive: MDA-MB-435 > 100 µM | NCI-H522 40.2 µM | PC-3 > 100 µM | IGROV-1 > 100 µM | 786-0 14.8 µM | SW-620 > 100 µM | RXF 393 20.5 µM | K562 33.3 µM | T47D > 92.9 µM | NCI-H460 > 100 µM | SF-295 20.1 µM | UO-31 > 67.3 µM | MCF7 > 100 µM | KM12 > 100 µM | OVCAR-3 > 100 µM | Hs-578T 21.1 µM | UACC-257 > 100 µM | DU-145 > 100 µM

N=c1ccn2c(n1)OC1C(OP(=O)(O)O)C(CO)OC12 (stereo not given)
active: NCI-H460 0.53 µM
inactive: MDA-MB-435 > 100 µM | NCI-H522 > 80.4 µM | PC-3 > 100 µM | IGROV-1 > 80.7 µM | 786-0 9.77 µM | SW-620 > 47.2 µM | RXF 393 > 100 µM | K562 > 80 µM | T47D > 100 µM | SF-295 38.1 µM | UO-31 7.64 µM | MCF7 1.18 µM | KM12 > 100 µM | OVCAR-3 > 71.3 µM | Hs-578T > 100 µM | UACC-257 > 30.2 µM | DU-145 7.31 µM
> 100 µM: HCT-15

COC(=O)C(Cc1ccccc1)NP(=O)(O)OCC1OC(n2cc(F)c(=O)[nH]c2=O)CC1O (stereo not given)
inactive: MDA-MB-435 > 86.3 µM | NCI-H522 > 100 µM | PC-3 > 78.5 µM | IGROV-1 > 22.5 µM | 786-0 4.14 µM | SW-620 > 100 µM | RXF 393 > 100 µM | K562 65.3 µM | T47D 12.6 µM | SF-295 3.72 µM | UO-31 5.24 µM | KM12 > 100 µM | OVCAR-3 > 100 µM | Hs-578T > 82.8 µM | UACC-257 > 56 µM | DU-145 9.79 µM
> 100 µM: HCT-15
active: NCI-H460 0.236 µM | MCF7 0.317 µM

COc1cccc2c1-c1ccccc1[C@H](Nc1ccccc1)[C@@]2(C)O
4.3 µM: HCT-15
inactive: MDA-MB-435 1.56 µM | NCI-H522 2.37 µM | PC-3 6.21 µM | 786-0 5.45 µM | SW-620 4.35 µM | RXF 393 4.6 µM | K562 3.31 µM | T47D 8.85 µM | NCI-H460 3.91 µM | SF-295 4.13 µM | UO-31 4.93 µM | MCF7 4.34 µM | KM12 3.04 µM | OVCAR-3 2.7 µM | Hs-578T 4.97 µM | UACC-257 6.11 µM | DU-145 5.3 µM

COc1ccc(-c2cc(-c3cc4cc(Br)ccc4nc3Cl)c(C#N)c(N)n2)cc1
inactive: MDA-MB-435 > 12.5 µM | NCI-H522 > 12.5 µM | PC-3 > 12.5 µM | IGROV-1 > 12.5 µM | 786-0 > 12.5 µM | SW-620 > 12.5 µM | RXF 393 > 12.5 µM | K562 > 12.5 µM | T47D > 12.5 µM | SF-295 > 12.5 µM | UO-31 > 12.5 µM | MCF7 > 12.5 µM | KM12 > 12.5 µM | OVCAR-3 > 12.5 µM | Hs-578T > 12.5 µM | DU-145 > 12.5 µM
> 12.5 µM: HCT-15

CCCCCCCCCCCCCCCCOCC(COP(=O)(O)OCC1OC(n2cc(CC)c(=O)[nH]c2=O)CC1O)OC(=O)CCCCCCCCCCCCCCC (stereo not given)
inactive: MDA-MB-435 > 100 µM | NCI-H522 > 100 µM | PC-3 > 100 µM | IGROV-1 > 100 µM | 786-0 > 100 µM | SW-620 > 100 µM | RXF 393 > 100 µM | K562 > 100 µM | T47D > 100 µM | SF-295 > 100 µM | UO-31 > 100 µM | MCF7 > 100 µM | KM12 > 100 µM | OVCAR-3 > 100 µM | Hs-578T > 100 µM | UACC-257 > 100 µM | DU-145 > 100 µM
> 100 µM: HCT-15
